Assay results taken from US8039505B2, “Compounds for modulating T-cells” (University of Utah Research Foundation, priority 2007, dated 2011).

What was measured:
[1] = tested on: human B-ALL line RS 4; 11; assay: MTT cell viability, RS4;11; format: cell-based; conditions: RS4;11, 2.5 μM, 48 hours
Description: FIG. 3 is a graph showing viability of human T-ALL lines incubated with individual compounds. Specifically, two human ALL lines (B-ALL: RS4; 11 and T-ALL: Jurkat) were incubated on day 0 with serum or with 2.5 μM of the indicated compounds (except for aphidicolin 1 μM and cyclosporine 1.5 μM). 48 hours later, cells were tested for viability by MTT test. Results from the mean of 3 to 4 experiments carried out in triplicate (individual dots) and the mean of all experiments (horizontal bar) are indicated. Results are shown for compounds without a cell cycle effect (B). Viability of untreated cells was arbitrarily set at 1.0.
(§1) Cell culture experiments: Cells were incubated at 37° C. in 75 mL flasks in RPMI containing 10% FBS, 5 mL Penicillin/Streptomycin (100×) in a total volume of […]. Cells were counted using a hemocytometer, and 25,000 cells were plated in each well of a 96-well plate. Compounds and controls were added and cells were harvested after a 48 hr incubation period.
To assess effects of compounds, cell viability was measured. […] After crystal solubilization with DMSO a blue color (that is proportional to the amount of crystal formed) can be measured. […] Final optical density (OD) obtained from formazan formation was calculated OD=L1-L2 (background). […]

[2] = tested on: HEK293 human kidney cell line; assay: Cell viability, kidney cell line; format: cell-based
Description: Experiments described in this document are carried out in zebrafish embryos (cell cycle experiments) and lck-GFP transgenic larvae (5 to 8 days after fertilization), and in human cell lines (Jurkat is a human T cell leukemia, RS4; 11 is a human B cell leukemia and HEK293 is a human kidney cell line).
as §1
To assess effects of compounds, cell viability was measured. For this, cells were incubated with MTT [3-(4,5-[…])-2,5 diphenyl Tetrazolium Bromid], a compound that is transformed into a formazan crystal by mitochondrial dehydrogenases. After crystal solubilization with DMSO a blue color (that is proportional to the amount of crystal formed) can be measured. Formazan solution absorbs light at 550-570 nm but not at 620-650 nm. 620-650 nm absorbency results from cell debris and well imperfections. Final optical density (OD) obtained from formazan formation was calculated OD=L1-L2 (background).
Next, the nine compounds were tested for activity against the human T-ALL line: Jurkat and the human B-ALL line RS 4; 11. […]

C(=NNc1cccc2cccnc12)c1c[nH]c2ccccc12 [Compound C3, 1H-indole-3-carbaldehyde quinolin-8-ylhydrazone]
Effect on B-ALL line (viability, MTT) [1]: neither the kidney cell line, nor the B-ALL were affected
Effect on kidney cell line (viability) [2]: neither the kidney cell line, nor the B-ALL were affected
